Measurements from patent publication US20260092061A1, “COMPOUNDS FOR TARGETED PROTEIN DEGRADATION” (Amphista Therapeutics Limited, priority 2022, published 2026).

Biological target: T1, BRD9 (Homo sapiens, UniProt Q9H8M2)
T1 sequence (Q9H8M2 1-597): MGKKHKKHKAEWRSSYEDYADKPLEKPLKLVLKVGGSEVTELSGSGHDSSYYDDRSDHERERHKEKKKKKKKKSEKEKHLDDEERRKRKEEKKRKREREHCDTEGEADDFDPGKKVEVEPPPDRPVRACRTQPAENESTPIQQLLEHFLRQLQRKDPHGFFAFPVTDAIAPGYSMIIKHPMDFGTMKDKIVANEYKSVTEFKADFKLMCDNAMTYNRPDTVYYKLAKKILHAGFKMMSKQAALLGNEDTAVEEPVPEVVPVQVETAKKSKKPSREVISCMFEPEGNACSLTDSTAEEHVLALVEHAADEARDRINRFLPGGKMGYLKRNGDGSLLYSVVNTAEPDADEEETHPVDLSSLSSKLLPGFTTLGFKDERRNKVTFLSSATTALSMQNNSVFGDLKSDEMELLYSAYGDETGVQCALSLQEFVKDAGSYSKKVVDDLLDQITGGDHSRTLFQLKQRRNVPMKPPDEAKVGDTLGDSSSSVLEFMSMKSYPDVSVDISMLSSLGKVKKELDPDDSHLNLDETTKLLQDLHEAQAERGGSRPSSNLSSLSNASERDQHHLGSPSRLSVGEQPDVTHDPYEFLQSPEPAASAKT
Assay: Degradation of BRD9 (IF), immunofluorescence in MV4-11 cells, 24 hours (Assay Protocol 2)
Assay type: cell-based
Design: A suspension of MV4-11 cells (ATCC CRL-9591) was prepared; host or cells: MV4-11
Settings: BRD9 degradation; for DC50: Assay protocol 2, read-out: DC50; for Dmax: MV4-11, Assay protocol 2, read-out: Dmax
Summary of the method: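 % BRD9 remaining, scaled between DMSO (high) and 100 nM CFT-8634 (low) control wells, derives from mean Alexa 647 contrast in central nuclei by high-content imaging. MV4-11 cells had 24 h compound exposure at 37° C. before PFA fixation, Triton permeabilisation and anti-BRD9 E4Q3F immunostaining.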

Row | Structure (SMILES) | DC50 | Dmax
1 | COc1cc(-c2cn(C)c(=O)c(C)c2C)cc(OC)c1CN1CCN(Cc2cccc3c2CCN(C(=O)/C(C#N)=C/C(C)(C)CF)C3C)C2(CC2)C1 (single isomer, unassigned) [Compound B195, (E/Z)-2-(5-((7-(2,6-dimethoxy-4-(1,4,5-trimethyl-6-oxo-1,6-dihydropyridin-3-yl)benzyl)-4,7-diazaspiro[2.5]octan-4-yl)methyl)-1-methyl-1,2,3,4-tetrahydroisoquinoline-2-carbonyl)-5-fluoro-4,4-dimethylpent-2-enenitrile] | < 1.25 nM | > 75%
2 | COc1cc(-c2cn(C)c(=O)c(C)c2C)cc(OC)c1CN1CCN(Cc2cccc3c2CCN(C(=O)/C(C#N)=C/C(C)(C)CF)[C@@H]3C)C2(CC2)C1 (single isomer, unassigned) [Compound B196, (E/Z)-2-(5-((7-(2,6-dimethoxy-4-(1,4,5-trimethyl-6-oxo-1,6-dihydropyridin-3-yl)benzyl)-4,7-diazaspiro[2.5]octan-4-yl)methyl)-1-methyl-1,2,3,4-tetrahydroisoquinoline-2-carbonyl)-5-fluoro-4,4-dimethylpent-2-enenitrile] | 1.25 to 10 nM | 70 to 75%
3 | COc1cc(-c2cn(C)c(=O)c(C)c2C)cc(OC)c1CN1CCN(Cc2cccc3c2CCN(C(=O)/C(C#N)=C/C(C)(C)C)[C@H]3C)[C@@H](C)C1 (single isomer, unassigned) [Compound B197] | 25 to 1000 nM | 40 to 70%
4 | COc1cc(-c2cn(C)c(=O)c(C)c2C)cc(OC)c1CN1CCN(Cc2cccc3c2CCN(C(=O)/C(C#N)=C/C(C)(C)C)[C@@H]3C)[C@@H](C)C1 (single isomer, unassigned) [Compound B198] | 1.25 to 10 nM | > 75%
5 | COc1cc(-c2cn(C)c(=O)c(C)c2C)cc(OC)c1CN1CCN(Cc2ccc3c(c2)[C@H](C)N(C(=O)/C(C#N)=C/C(C)(C)CF)CC3)C2(CC2)C1 (single isomer, unassigned) [Compound B201, (E/Z)-2-(7-((7-(2,6-dimethoxy-4-(1,4,5-trimethyl-6-oxo-1,6dihydropyridin-3-yl)benzyl)-4,7-diazaspiro[2.5]octan-4-yl)methyl)-1-methyl-1,2,3,4-tetrahydroisoquinoline-2-carbonyl)-5-fluoro-4,4-dimethylpent-2-enenitrile] | 25 to 1000 nM | 40 to 70%
6 | COc1cc(-c2cn(C)c(=O)c(C)c2C)cc(OC)c1CN1CCN(Cc2ccc3c(c2)[C@@H](C)N(C(=O)/C(C#N)=C/C(C)(C)CF)CC3)C2(CC2)C1 (single isomer, unassigned) [Compound B202, (E/Z)-2-(7-((7-(2,6-dimethoxy-4-(1,4,5-trimethyl-6-oxo-1,6-dihydropyridin-3-yl)benzyl)-4,7-diazaspiro[2.5]octan-4-yl)methyl)-1-methyl-1,2,3,4-tetrahydroisoquinoline-2-carbonyl)-5-fluoro-4,4-dimethylpent-2-enenitrile] | < 1.25 nM | > 75%
7 | COc1cc(-c2cn(C)c(=O)c(C)c2C)cc(OC)c1CN1CCN(Cc2ccc3c(c2)C(C)N(C(=O)/C(C#N)=C/C(C)(C)CCl)CC3)C2(CC2)C1 (single isomer, unassigned) [Compound B203, (E/Z)-5-chloro-2-(7-((7-(2,6-dimethoxy-4-(1,4,5-trimethyl-6-oxo-1,6-dihydropyridin-3-yl)benzyl)-4,7-diazaspiro[2.5]octan-4-yl)methyl)-1-methyl-1,2,3,4-tetrahydroisoquinoline-2-carbonyl)-4,4-dimethylpent-2-enenitrile] | 1.25 to 10 nM | > 75%
8 | COc1cc(-c2cn(C)c(=O)c(C)c2C)cc(F)c1CN1CCN(Cc2ccc3c(c2)[C@@H](C)N(C(=O)/C(C#N)=C/C(C)(C)C)CC3)C2(CC2)C1 (single isomer, unassigned) [Compound C5, (E/Z)-2-(7-((7-(2-fluoro-6-mehtoxy-4-(1,4,5-trimethyl-6-oxo-1,6-dihydropyridin-3-yl)benzyl)-4,7-diazaspiro[2.5]octan-4-yl)methyl)-1-methyl-1,2,3,4-tetrahydroisoquinoline-2-carbonyl)-4,4-dimethylpent-2-enenitrile] | 10 to 25 nM | > 75%

Continued, values first:

Row | DC50 | Dmax | Structure (SMILES)
9 | 25 to 1000 nM | 40 to 70% | COc1cc(-c2cn(C)c(=O)c(C)c2C)cc(OC)c1CN1CCN(Cc2ccc3c(c2)[C@H](C)N(C(=O)/C(C#N)=C/C(C)(C)C)CC3)[C@H](C)C1 (single isomer, unassigned) [Compound C3]
10 | 1.25 to 10 nM | > 75% | COc1cc(-c2cn(C)c(=O)c(C)c2C)cc(OC)c1CN1CCN(Cc2cccc3c2CCN(C(=O)/C(C#N)=C/C(C)(C)C)[C@H]3C)CC12CC2 (single isomer, unassigned) [Compound C4, (E/Z)-2-(5-((4-(2,6-dimethoxy-4-(1,4,5-trimethyl-6-oxo-1,6-dihydropyridin-3-yl)benzyl)-4,7-diazaspiro[2.5]octan-7-yl)methyl)-1-methyl-1,2,3,4-tetrahydroisoquinoline-2-carbonyl)-4,4-dimethylpent-2-enenitrile]
11 | < 1.25 nM | > 75% | COc1cc(-c2cn(C)c(=O)c3[nH]ncc23)cc(OC)c1CN1CCN(Cc2ccc3c(c2)[C@@H](C)N(C(=O)/C(C#N)=C/C(C)(C)C)CC3)C2(CC2)C1 (single isomer, unassigned) [Compound C6, (E/Z)-2-(7-((7-(2,6-dimethoxy-4-(6-methyl-7-oxo-6,7-dihydro-1H-pyrazolo[3,4-c]pyridin-4-yl)benzyl)-4,7-diazaspiro[2.5]octan-4-yl)methyl)-1-methyl-1,2,3,4-tetrahydroisoquinoline-2-carbonyl)-4,4-dimethylpent-2-enenitrile]
12 | 1.25 to 10 nM | > 75% | COc1cc(-c2cn(C)c(=O)c(C)c2C)cc(OC)c1CN1CCCN(Cc2cccc3c2CCN(C(=O)/C(C#N)=C/C(C)(C)CF)[C@@H]3C)CC1 (single isomer, unassigned) [Compound C19]
13 | < 1.25 nM | > 75% | COc1cc(-c2cn(C)c(=O)c(C)c2C)cc(OC)c1CN1CCN(Cc2cccc3c2CCN(C(=O)/C(C#N)=C/C(C)(C)F)[C@@H]3C)C2(CC2)C1 (single isomer, unassigned) [Compound C20, (E/Z)-2-(5-((7-(2,6-dimethoxy-4-(1,4,5-trimethyl-6-oxo-1,6-dihydropyridin-3-yl)benzyl)-4,7-diazaspiro[2.5]octan-4-yl)methyl)-1-methyl-1,2,3,4-tetrahydroisoquinoline-2-carbonyl)-4-fluoro-4-methylpent-2-enenitrile]
14 | 10 to 25 nM | > 75% | COc1cc(-c2cn(C)c(=O)c(C)c2C)cc(OC)c1CN1CCN(Cc2cccc3c2CCN(C(=O)/C(C#N)=C\C(C)(C)CF)C3C(C)C)[C@@H](C)C1 (single isomer, unassigned) [Compound C26]
15 | 1.25 to 10 nM | > 75% | COc1cc(-c2cn(C)c(=O)c(C)c2C)ccc1OC1CCN(Cc2cccc3c2CCN(C(=O)/C(C#N)=C/C(C)(C)C)[C@H]3C)CC1 (single isomer, unassigned) [Compound C31, (E/Z)-2-(5-((4-(2-methoxy-4-(1,4,5-trimethyl-6-oxo-1,6-dihydropyridin-3-yl)phenoxy)piperidin-1-yl)methyl)-1-methyl-1,2,3,4-tetrahydroisoquinoline-2-carbonyl)-4,4-dimethylpent-2-enenitrile]
16 | 1.25 to 10 nM | > 75% | COc1cc(-c2cn(C)c(=O)c(C)c2C)cc(OC)c1CN1CCN(Cc2ccc3c(c2)[C@H](C)N(C(=O)/C(C#N)=C/C(C)(C)CF)CC3)CC12CC2 (single isomer, unassigned) [Compound C33]
17 | 25 to 1000 nM | 40 to 70% | COc1cc(-c2cn(C)c(=O)c(C)c2C)cc(OC)c1CN1CCN(Cc2ccc3c(c2)[C@@H](C)N(C(=O)/C(C#N)=C/C(C)(C)CF)CC3)CC12CC2 (single isomer, unassigned) [Compound C34]
18 | < 1.25 nM | > 75% | COc1cc(-c2cn(C)c(=O)c(C)c2C)cc(OC)c1CN1CCN(Cc2ccc3c(c2)[C@@H](C)N(C(=O)/C(C#N)=C/C(C)(C)C)CC3)C2(CC2)C1 (single isomer, unassigned) [Compound C35, (E/Z)-2-(7-((7-(2,6-dimethoxy-4-(1,4,5-trimethyl-6-oxo-1,6-dihydropyridin-3-yl)benzyl)-4,7-diazaspiro[2.5]octan-4-yl)methyl)-1-methyl-1,2,3,4-tetrahydroisoquinoline-2-carbonyl)-4,4-dimethylpent-2-enenitrile]
19 | 10 to 25 nM | 40 to 70% | COc1cc(-c2cn(C)c(=O)c(C)c2C)cc(OC)c1CN1CCN(Cc2ccc3c(c2)[C@H](C)N(C(=O)/C(C#N)=C/C(C)(C)C)CC3)C2(CC2)C1 (single isomer, unassigned) [Compound C36, (E/Z)-2-(7-((7-(2,6-dimethoxy-4-(1,4,5-trimethyl-6-oxo-1,6-dihydropyridin-3-yl)benzyl)-4,7-diazaspiro[2.5]octan-4-yl)methyl)-1-methyl-1,2,3,4-tetrahydroisoquinoline-2-carbonyl)-4,4-dimethylpent-2-enenitrile]
